Where two headings read alike, the source gives them in different places.
Tests used:
synthesis of estrogens = conditions: seven days, testosterone propionate-treated immature female rats
[1] = tested on: DMBA-induced Mammary Tumor; experiment: DMBA-induced mammary tumor inhibition; format: in vivo, Sprague-Dawley rats; conditions: for Mean Tumor Area (mm^2) Start: start of test
Procedure: Mammary tumors were produced in female Sprague-Dawley rats which were 50-60 days old by the gavage administration of 20 mg of 7,12-dimethylbenz[a]anthracene (DMBA). About six weeks after DMBA administration, the mammary glands were palpated at weekly intervals for the appearance of tumors. Whenever one or more tumors appeared and were measurable in an animal, that animal was selected for experimentation. […] Each control and test group contained 8 animals. The test compound was administered either mixed into the food at a concentration of 300 ppm (corresponding to an appropriate daily dose of 30 mg/kg) or the compounds were dissolved or suspended in corn oil and administered once daily by gavage. Every experiment included a group of control rats having tumors and were either given food without the compound admixed or corn oil vehicle by gavage, depending on how the test compound was administered. […] The area of each tumor was calculated by multiplying the shortest and longest diameters of the tumor. The treatment and measurement of animals continued for 4-8 weeks at which time the final areas of the tumors were determined. For each compound (and control) at each dose level, the change in the mean tumor area was determined. The mean change was analyzed for its significance using Dunnett's t-test.

[2] = 300 ppm in feed (approximately 30 mg/kg/day)
[3] = 300 ppm in the diet, 5 weeks test

Structure (SMILES) | Mean Uterine Weight (mg) (synthesis of estrogens; [2]) | Mean Tumor Area (mm^2) Finish ([1]; 1 mg/kg daily by gavage, 5 weeks) | Mean Tumor Area (mm^2) Start ([1]; 1 mg/kg daily by gavage, 5 weeks test) [mm^2] | Mean Tumor Area (mm^2) Finish ([1]; 5 mg/kg daily by gavage, 4 weeks) [mm^2] | Mean Tumor Area (mm^2) Start ([1]; 5 mg/kg daily by gavage, 4 weeks test) [mm^2] | Mean Tumor Area (mm^2) Finish ([1]; 7.5 mg/kg daily by gavage, 5 weeks) | Mean Tumor Area (mm^2) Start ([1]; 7.5 mg/kg daily by gavage, 5 weeks test) [mm^2] | Mean Tumor Area (mm^2) Finish ([1]; 15 mg/kg daily by gavage, 5 weeks) | Mean Tumor Area (mm^2) Start ([1]; 15 mg/kg daily by gavage, 5 weeks test) [mm^2] | Mean Tumor Area (mm^2) Finish ([1]; 30 mg/kg daily by gavage, 4 weeks) [mm^2] | Mean Tumor Area (mm^2) Start ([1]; 30 mg/kg daily by gavage, 4 weeks test) [mm^2] | Mean Tumor Area (mm^2) Finish ([1]; 30 mg/kg daily by gavage, 5 weeks) | Mean Tumor Area (mm^2) Start ([1]; 30 mg/kg daily by gavage, 5 weeks test) [mm^2] | Mean Tumor Area (mm^2) Finish ([1]; 300 ppm in the diet, 5 weeks) | Mean Tumor Area (mm^2) Start [1, 3] [mm^2] | Mean Tumor Area (mm^2) Finish ([1]; 300 ppm in the diet, 8 weeks) | Mean Tumor Area (mm^2) Start ([1]; 300 ppm in the diet, 8 weeks test) [mm^2] | Mean Uterine Weight (mg) (synthesis of estrogens; 30 ppm in feed (approximately 3 mg/kg/day))
OC(c1ccc(Cl)cc1)(c1ccc(Cl)cc1)c1cncnc1 [compound 29, α,α-bis(4-chlorophenyl)-5-pyrimidinemethanol] | 75.00^+ mg | 210^+ mm^2 | 66 | 123.5 | 56.3 | 159^+ mm^2 | 63 | 9^+ mm^2 | 50 | 34.3 | 71.5 | 146^+ mm^2 | 69 | 10.0^+ mm^2 | 60.7 | 355^+ mm^2 | 160.4 | –
Clc1ccc(C(c2ccc(Cl)cc2)c2cncnc2)cc1 [compound 27, 5-bis(4-chlorophenyl)methylpyrimidine] | 80.20^+ mg | – | – | – | – | – | – | – | – | – | – | – | – | 154 mm^2 | 78.6 | – | – | 92.25^+ mg

Source: EP0116431B1, “Aromatase inhibiting pyrimidine derivatives” (ELI LILLY AND COMPANY, priority 1983, dated 1984)
